# From patent publication US12270065B2, “Methods for improving titer and purity of beta carotene fermentation in Blakeslea trispora (beta-carotene fermentation method)” (DSM IP Assets B.V., priority 2019, dated 2025)
# Experiments:
# B. trispora [1] = test: Effect on beta-carotene purity profile with B. trispora (percentage of total carotenoids, HPLC); format: cell-based, Blakeslea trispora; conditions: for 7,8-DH [%] of total carotenoids / BC [%] of total carotenoids: average of two measurements
# Procedure: (§1) Shake flask seed medium MIBLT-1. 23.5 g/l corn meal, 23 g/l soybean meal, 10 g/l glucose, 0.5 g/l KH2PO4 are mixed, the medium pH is adjusted to 6.3, homogenized with an Ultra-Turrax® blender (Ika) for 8 minutes at 13500 rpm, and heated at 70° C. for 45 minutes prior to autoclaving.
# (§2) Shake flask production medium MF-BLT-22. 17.5 g/l corn meal, 40 g/l soya flour, 10 g/l soy lecithin, 0.5 g/l KH2PO4, 109 g/l soy oil, optionally 0.28 g/l isoniazid, optionally curcumin (1.0, 0.3, 0.1, 0.03 or 0.01% w/v), are mixed, the medium pH is adjusted to 6.3, is homogenized with an Ultra-Turrax® blender (Ika) for 8 minutes at 13500 rpm, and heated at 70° C. for 45 minutes prior to autoclaving.
# (§3) Shake Flask Process. An Erlenmeyer flask (250 or 300 mL volume) containing 30 ml of seed medium (MIBLT-1) is inoculated with spores of B. trispora (−) strain to a concentration of 4.5×10^3 spores/ml. A second Erlenmeyer flask containing 30 ml of MIBLT-1 is inoculated with spores of B. trispora (+) strain to a concentration of 1.5×10^3 spores/ml. The flasks are incubated (220 rpm, 5 cm displacement, 27° C., protected from light) for 48 hr. Three ml of (+) strain culture are added to 30 ml of (−) strain culture, and the mated strains mixture is incubated (220 rpm, 5 cm throw, 27° C., protected from light) for 45 minutes. Erlenmeyer flasks (250 or 300 mL volume) containing 20 ml of production medium (MF-BLT-22) are inoculated with 2 ml of the mated strains mixture. Flasks are incubated (250 rpm, 5 cm displacement, 25° C., protected from light). At 48 hours after inoculation of the 20 mL production cultures, 40 μL of a 50% v/v sterile beta-ionone solution in absolute ethanol is added to each flask. Cultures are returned to the incubator for a total of 7 days post inoculation.
# (§4) Sample preparation for HPLC-analysis. Each flask culture is transferred to a 50 mL conical tube and homogenized with an Ultra-Turrax® blender (Ika) for 2 minutes at 24000 rpm. Weigh out one gram of sample into a 100 ml volumetric flask. Eighty milliliters of Solution A are added to the flask and the flask is sonicated for 5 min. The volume is brought to 100 ml with solution A, and the solution is stirred for 60 minutes and allowed to settle for another hour.
# (§5) HPLC-analysis. Samples from the above extract (10 μl) are injected as is on a calibrated HPLC using a Suplex-PKB-100 column (Supelco), with a flow rate of 0.6 ml/min, and column temperature of 30° C. The mobile phase contains (per L) 455 ml acetonitrile, 500 ml methanol, 0.2 ml N-ethyldiisopropylamine, 25 ml aqueous solution of 0.2% ammonium acetate, and 50 mg BHT (dissolved in 20 ml of 2-propanol). Compounds are identified and quantified by UV at 448 nm.
# Fermentations and analysis were performed as described in Ex. 2, including addition of various concentrations of curcumin.
# B. trispora [2] = test: Effect on beta-carotene production with B. trispora in shake flask fermentation (HPLC); format: cell-based, Blakeslea trispora; conditions: for BC: average of two measurements; for Increase BC: compared to control with no curcumin/isoniazid
# Procedure: as §1, §2, §3, §4, §5
# Concentration of beta-carotene was measured as described in Example 1, with comparison of different concentrations of curcumin.
# [3] = curcumin 0.3% w/v, listed as Curcumin
smiles,measurement,setting,value
COc1cc(/C=C/C(=O)CC(=O)/C=C/c2ccc(O)c(OC)c2)ccc1O [curcumin],increase of percentage of beta-carotene based on total carotenoids,"B. trispora [1]; 0.3% curcumin, compared to fermentations without curcumin",about 10%
same,"percentage of 7,8-dihydro-beta-carotene based on total carotenoids",B. trispora [1]; about 0.3 to 1.0% curcumin,about 3%
same,"reduction of 7,8-dihydro-beta-carotene based on total carotenoids","B. trispora [1]; about 1.0% (w/v) curcumin, compared to no curcumin",about 68%
same,"reduction of 7,8-dihydro-beta-carotene based on total carotenoids","B. trispora [1]; addition of curcumin (amount not specified), compared to fermentation without curcumin",at least 28%
same,"7,8-DH [%] of total carotenoids",B. trispora [1]; curcumin 0.01% w/v,9.98%
same,BC [%] of total carotenoids,B. trispora [1]; curcumin 0.01% w/v,81.19%
same,"7,8-DH [%] of total carotenoids",B. trispora [1]; curcumin 0.03% w/v,6.99%
same,BC [%] of total carotenoids,B. trispora [1]; curcumin 0.03% w/v,85.59%
same,"7,8-DH [%] of total carotenoids",B. trispora [1]; curcumin 0.1% w/v,5.79%
same,BC [%] of total carotenoids,B. trispora [1]; curcumin 0.1% w/v,86.75%
same,"7,8-DH [%] of total carotenoids",B. trispora [1]; curcumin 0.3% w/v,3.35%
same,BC [%] of total carotenoids,B. trispora [1]; curcumin 0.3% w/v,about 91%
same,BC [%] of total carotenoids,B. trispora [1]; [3],91.44%
same,"7,8-DH [%] of total carotenoids",B. trispora [1]; curcumin 1.0% w/v,3.12%
same,BC [%] of total carotenoids,B. trispora [1]; curcumin 1.0% w/v,92.17%
same,BC,"B. trispora [2]; curcumin 0.01% w/v in production medium, no isoniazid",1.74 g/L
same,Increase BC,B. trispora [2]; curcumin 0.01% w/v,12%
same,BC,"B. trispora [2]; curcumin 0.03% w/v in production medium, no isoniazid",2.45 g/L
same,Increase BC,B. trispora [2]; curcumin 0.03% w/v,58%
same,BC,"B. trispora [2]; curcumin 0.1% w/v in production medium, no isoniazid",3.48 g/L
same,Increase BC,B. trispora [2]; curcumin 0.1% w/v,125%
same,BC,"B. trispora [2]; curcumin 0.3% w/v in production medium, no isoniazid",4.99 g/L
same,Increase BC,B. trispora [2]; curcumin 0.3% w/v,more than 220%
same,Increase BC,B. trispora [2]; [3],222%
same,BC,"B. trispora [2]; curcumin 1.0% w/v in production medium, no isoniazid",4.55 g/L
same,Increase BC,B. trispora [2]; curcumin 1.0% w/v,194%
"NNC(=O)c1ccncc1 [isoniazid, reference compound]",increase in the percentage of beta-carotene based on total carotenoids,"B. trispora [1]; addition of 0.28 g/l isoniazid, compared to no isoniazid",less than 10%
same,"percentage of 7,8-dihydro-beta-carotene based on total carotenoids",B. trispora [1]; addition of isoniazid (0.28 g/l),28.1%
same,BC,"B. trispora [2]; isoniazid 0.28 g/l in production medium, no curcumin",4.17 g/L
